Laboratory results reported in ChEMBL document CHEMBL1136948, “Non-nucleoside inhibitors of HCV NS5B polymerase. Part 1: Synthetic and computational exploration of the binding modes of benzothiadiazine and 1,4-benzothiazine HCV NS5b polymerase inhibitors” (Bioorg Med Chem Lett, 2009).
pEC50, pIC50: −log10 of the molar value.

Tests used:
Hepatitis C virus [1] = assay: Inhibition of HCV 1b NS5B polymerase; type: organism-based, Hepatitis C virus subtype 1b
Hepatitis C virus [2] = assay: Inhibition of HCV 1b J4 NS5B Cdelta 21polymerase over expressed in Escherichia coli assessed as [alpha33P]UTP incorporation; set-up: species or system Hepatitis C virus subtype 1b
Hepatitis C virus [3] = assay: Antiviral activity against HCV 1b replication in human 2209-23 cells assessed as [3H]thymidine incorporation into cellular DNA by scintillation proximity assay; type: functional, organism-based, Hepacivirus hominis; details: genotype 1b
Hepatitis C virus [4] = assay: Antiviral activity against HCV in human HuH7 cells by replicon assay; type: functional, organism-based, Hepacivirus hominis; details: Huh-7
[5] = Apparent permeability from apical to basolateral side of human Caco-2 cells after 21 days
[6] = Apparent permeability from basolateral to apical side of human Caco-2 cells after 21 days
[7] = Apparent permeability across human Caco-2 cells after 7 days; type: ADME, cell-based

Compound CC(C)CCn1c(=O)c(C2=NS(=O)(=O)c3ccccc3N2)c(O)c2ccccc21 has a pIC50 (Hepatitis C virus [1]) of 5.96, a pIC50 (Hepatitis C virus [2]) of 7.52 and a pEC50 (Hepatitis C virus [3]) of 6.06.
In the case of CC(C)CCn1c(=O)c(C2=NS(=O)(=O)c3ccccc3N2)cc2ccccc21, the pIC50 (Hepatitis C virus [1]) was 3.17.
In the case of CC(C)CCn1cc(C2=NS(=O)(=O)c3ccccc3N2)c(=O)c2ccccc21, the pIC50 (Hepatitis C virus [1]) was < 3.00.
Work on O=c1c(C2=Nc3ccccc3S(=O)(=O)N2)c(O)c2cc(F)ccc2n1CCC1CC1 yielded a pIC50 (Hepatitis C virus [1]) of 7.00, a pIC50 (Hepatitis C virus [4]) of 7.40 and a pIC50 (Hepatitis C virus [2]) of 8.00. It also gave a pEC50 (Hepatitis C virus [3]) of 6.59.
Work on O=S1(=O)N=C(c2nc(Cc3ccc(F)cc3)c3ccccc3c2O)c2ccccc21 yielded a pIC50 (Hepatitis C virus [1]) of 5.66 and a pEC50 (Hepatitis C virus [3]) of 6.36.
In the case of O=S1(=O)C=C(c2nc(Cc3ccc(F)cc3)c3ccccc3c2O)Nc2ccccc21, the pIC50 (Hepatitis C virus [1]) was 5.16 and the pEC50 (Hepatitis C virus [3]) was 5.12.
CC(C)CCn1c(=O)c(C2=CS(=O)(=O)c3ccccc3N2)c(O)c2ccccc21 showed a pIC50 (Hepatitis C virus [1]) of 5.64 and a pEC50 (Hepatitis C virus [3]) of 5.60.
Compound O=c1c(C2=CS(=O)(=O)c3ccccc3N2)c(O)c2cc(F)ccc2n1Cc1ccc(F)c(F)c1 has a pIC50 (Hepatitis C virus [1]) of 5.92 and a pEC50 (Hepatitis C virus [3]) of 5.82.
In the case of Cc1cc(Cn2c(=O)c(C3=CS(=O)(=O)c4ccccc4N3)c(O)c3cc(F)ccc32)ccc1F, the pIC50 (Hepatitis C virus [1]) was 6.40, the Papp A→B [5] was 0.5 ×10⁻⁶ cm/s and the Papp B→A [6] was 5.3 ×10⁻⁶ cm/s. It also gave a pEC50 (Hepatitis C virus [3]) of 6.10.
N#Cc1cccc(Cn2c(=O)c(C3=CS(=O)(=O)c4ccccc4N3)c(O)c3cc(F)ccc32)c1 gave a pIC50 (Hepatitis C virus [1]) of 4.43.
CC(C)CCn1c(=O)c(C2=CS(=O)(=O)c3ccccc3N2)cc2ccccc21 showed a pIC50 (Hepatitis C virus [1]) of 3.06.
O=c1c(C2=CS(=O)(=O)c3ccccc3N2)c(O)c2ccccc2n1Cc1ccc(F)cc1 showed a pIC50 (Hepatitis C virus [1]) of 6.14, a Papp [7] of 4.4 ×10⁻⁶ cm/s and a pEC50 (Hepatitis C virus [3]) of 6.10.
For Cc1ccc2c(c1)c(O)c(C1=CS(=O)(=O)c3ccccc3N1)c(=O)n2Cc1ccc(F)cc1, the pIC50 (Hepatitis C virus [1]) was 5.82 and the pEC50 (Hepatitis C virus [3]) was 5.82.
Work on Cc1ccc2c(c1)c(O)c(C1=CS(=O)(=O)c3ccccc3N1)c(=O)n2CCC1CC1 yielded a pIC50 (Hepatitis C virus [1]) of 5.89, a Papp [7] of 9.4 ×10⁻⁶ cm/s and a pEC50 (Hepatitis C virus [3]) of 6.19.
For O=c1c(C2=CS(=O)(=O)c3ccccc3N2)c(O)c2cc(F)ccc2n1Cc1ccc(F)cc1, the pIC50 (Hepatitis C virus [1]) was 6.15 and the pEC50 (Hepatitis C virus [3]) was 6.15.
COc1ccc2c(c1)c(O)c(C1=CS(=O)(=O)c3ccccc3N1)c(=O)n2CCC1CC1 showed a pIC50 (Hepatitis C virus [1]) of 5.42 and a pEC50 (Hepatitis C virus [3]) of 5.15.
Cc1c(-c2ccccc2)c(O)c(C2=CS(=O)(=O)c3ccccc3N2)c(=O)n1CCC(C)C gave a pIC50 (Hepatitis C virus [1]) of 4.06.
For O=c1c(C2=CS(=O)(=O)c3ccccc3N2)c(O)c2cc(F)ccc2n1CCC1CC1, the pIC50 (Hepatitis C virus [1]) was 5.96, the Papp [7] was 6.4 ×10⁻⁶ cm/s and the Papp A→B [5] was 0.6 ×10⁻⁶ cm/s. The Papp B→A [6] was 7.1 ×10⁻⁶ cm/s and the pEC50 (Hepatitis C virus [3]) was 5.92.
For O=c1c(C2=CS(=O)(=O)c3ccccc3N2)c(O)c2cccnc2n1CCC1CC1, the pIC50 (Hepatitis C virus [1]) was 5.57.
O=c1c(C2=CS(=O)(=O)c3ccccc3N2)c(O)c2cc(Cl)ccc2n1CCC1CC1 showed a pIC50 (Hepatitis C virus [1]) of 5.62 and a pEC50 (Hepatitis C virus [3]) of 5.80.
Compound CN1C(c2nc(Cc3ccc(F)cc3)c3ccccc3c2O)=CS(=O)(=O)c2ccccc21 has a pIC50 (Hepatitis C virus [1]) of 4.71.
Work on CC(C)CCn1c(=O)c(C2=CS(=O)(=O)c3ccccc3N2)c(O)c2cccnc21 yielded a pIC50 (Hepatitis C virus [1]) of 5.85.
Compound O=c1c(C2=CS(=O)(=O)c3ccccc3N2)c(O)c2ccccc2n1Cc1ccccc1F has a pIC50 (Hepatitis C virus [1]) of 4.76 and a pEC50 (Hepatitis C virus [3]) of 4.34.
For CC(C)CCn1c(=O)c(C2=CS(=O)(=O)c3ccccc3N2)c(O)c2cc(F)cnc21, the pIC50 (Hepatitis C virus [1]) was 6.08 and the pEC50 (Hepatitis C virus [3]) was 5.07.
